Organism: Rattus norvegicus
Assay: Open TG-GATES - Regimen: Daily Repeat
Type: toxicity, organism-based, Sprague-Dawley
Set-up: regimen Daily Repeat, gender Male, age 6 weeks
Settings: in vivo, po, 0 mg/kg, route gavage, dose level Control; for APTT / Bas / Eos / Fbg / Hb / Ht / Lym / MCH / MCHC / MCV / Mono / Neu / PT / Plat / RBC / Ret / WBC: tissue Blood; for KIDNEY_L / KIDNEY_R / KIDNEY_TOTAL: tissue Kidney; for LIVER: tissue Liver; for A/G / ALP / ALT / AST / BUN / CRE / Ca / Cl / DBIL / GLC / IP / K / LDH / Na / PL / RALB / TBIL / TC / TG / TP / gamma-GTP: tissue Plasma

CN(C)CCN(Cc1cccs1)c1ccccn1 gave a TERMINAL_BW (72 h, time 3 day) of 217.2 g, an APTT (72 h, time 3 day) of 22.4 s and a Bas (72 h, time 3 day) of 0%. The Eos (72 h, time 3 day) was 0.6%, the Fbg (72 h, time 3 day) was 290.8 mg/dL and the Hb (72 h, time 3 day) was 12.9 g/dL. The Ht (72 h, time 3 day) was 38.8%, the Lym (72 h, time 3 day) was 80.4% and the MCH (72 h, time 3 day) was 21.3 pg. It also gave an MCHC (72 h, time 3 day) of 33.4%, an MCV (72 h, time 3 day) of 63.8 fL and a Mono (72 h, time 3 day) of 1.8%. It also gave a Neu (72 h, time 3 day) of 16.4%, a PT (72 h, time 3 day) of 15.9 s and a Plat (72 h, time 3 day) of 125.8 x10_4/uL. The RBC (72 h, time 3 day) was 609 x10_4/ul, the Ret (72 h, time 3 day) was 6.8% and the WBC (72 h, time 3 day) was 107.9 x10_2/uL. The KIDNEY_L (72 h, time 3 day) was 1 g, the KIDNEY_R (72 h, time 3 day) was 1 g and the KIDNEY_TOTAL (72 h, time 3 day) was 2 g. For the same compound, the LIVER (72 h, time 3 day) was 10.2 g, the A/G (72 h, time 3 day) was 1.2 and the ALP (72 h, time 3 day) was 1533 IU/L. The ALT (72 h, time 3 day) was 39.2 IU/L, the AST (72 h, time 3 day) was 68 IU/L and the BUN (72 h, time 3 day) was 16.8 mg/dL. For the same compound, the CRE (72 h, time 3 day) was 0.2 mg/dL, the Ca (72 h, time 3 day) was 10.9 mg/dL and the Cl (72 h, time 3 day) was 106.4 meq/L. It also gave a DBIL (72 h, time 3 day) of 0.002 mg/dL, a GLC (72 h, time 3 day) of 187.2 mg/dL and an IP (72 h, time 3 day) of 7.1 mg/dL. It also gave a K (72 h, time 3 day) of 4.4 meq/L, an LDH (72 h, time 3 day) of 210.8 IU/L and a Na (72 h, time 3 day) of 142.6 meq/L. It also gave a PL (72 h, time 3 day) of 140.6 mg/dL, an RALB (72 h, time 3 day) of 3 g/dL and a TBIL (72 h, time 3 day) of 0.012 mg/dL. The TC (72 h, time 3 day) was 75.4 mg/dL, the TG (72 h, time 3 day) was 86.8 mg/dL and the TP (72 h, time 3 day) was 5.6 g/dL. It also gave a gamma-GTP (72 h, time 3 day) of 1 IU/L, a TERMINAL_BW ([…], time 7 day) of 246.2 g and a TERMINAL_BW ([…], time 14 day) of 277 g. For the same compound, the TERMINAL_BW ([…], time 28 day) was 347.3 g, the APTT ([…], time 7 day) was 21.1 s and the Bas ([…], time 7 day) was 0%. For the same compound, the Eos ([…], time 7 day) was 0.6%, the Fbg ([…], time 7 day) was 320.8 mg/dL and the Hb ([…], time 7 day) was 13.4 g/dL. The Ht ([…], time 7 day) was 39.8%, the Lym ([…], time 7 day) was 80.2% and the MCH ([…], time 7 day) was 20.8 pg. For the same compound, the MCHC ([…], time 7 day) was 33.6%, the MCV ([…], time 7 day) was 61.8 fL and the Mono ([…], time 7 day) was 2%. For the same compound, the Neu ([…], time 7 day) was 16.4%, the PT ([…], time 7 day) was 17 s and the Plat ([…], time 7 day) was 131 x10_4/uL. The RBC ([…], time 7 day) was 644.2 x10_4/ul, the Ret ([…], time 7 day) was 5.8% and the WBC ([…], time 7 day) was 122.7 x10_2/uL. The APTT ([…], time 14 day) was 21.6 s, the Bas ([…], time 14 day) was 0% and the Eos ([…], time 14 day) was 1%. For the same compound, the Fbg ([…], time 14 day) was 303.8 mg/dL, the Hb ([…], time 14 day) was 14 g/dL and the Ht ([…], time 14 day) was 40.9%. The Lym ([…], time 14 day) was 81.8%, the MCH ([…], time 14 day) was 20.3 pg and the MCHC ([…], time 14 day) was 34.2%. It also gave an MCV ([…], time 14 day) of 59.4 fL, a Mono ([…], time 14 day) of 2% and a Neu ([…], time 14 day) of 14.4%. For the same compound, the PT ([…], time 14 day) was 16.7 s, the Plat ([…], time 14 day) was 112.6 x10_4/uL and the RBC ([…], time 14 day) was 689.8 x10_4/ul. It also gave a Ret ([…], time 14 day) of 4.2%, a WBC ([…], time 14 day) of 133.3 x10_2/uL and an APTT ([…], time 28 day) of 23.4 s. For the same compound, the Bas ([…], time 28 day) was 0%, the Eos ([…], time 28 day) was 1% and the Fbg ([…], time 28 day) was 288.2 mg/dL. For the same compound, the Hb ([…], time 28 day) was 14.7 g/dL, the Ht ([…], time 28 day) was 42.7% and the Lym ([…], time 28 day) was 79%. For the same compound, the MCH ([…], time 28 day) was 19.5 pg, the MCHC ([…], time 28 day) was 34.3% and the MCV ([…], time 28 day) was 56.9 fL. The Mono ([…], time 28 day) was 1.6%, the Neu ([…], time 28 day) was 17.4% and the PT ([…], time 28 day) was 16.1 s. For the same compound, the Plat ([…], time 28 day) was 97.6 x10_4/uL, the RBC ([…], time 28 day) was 751.4 x10_4/ul and the Ret ([…], time 28 day) was 2.9%. The WBC ([…], time 28 day) was 92 x10_2/uL, the KIDNEY_L ([…], time 7 day) was 1 g and the KIDNEY_R ([…], time 7 day) was 1 g. For the same compound, the KIDNEY_TOTAL ([…], time 7 day) was 2.1 g, the KIDNEY_L ([…], time 14 day) was 1.1 g and the KIDNEY_R ([…], time 14 day) was 1.1 g. It also gave a KIDNEY_TOTAL ([…], time 14 day) of 2.3 g, a KIDNEY_L ([…], time 28 day) of 1.3 g and a KIDNEY_R ([…], time 28 day) of 1.3 g. The KIDNEY_TOTAL ([…], time 28 day) was 2.5 g, the LIVER ([…], time 7 day) was 10.9 g and the LIVER ([…], time 14 day) was 11.5 g. For the same compound, the LIVER ([…], time 28 day) was 13.4 g, the A/G ([…], time 7 day) was 1.2 and the ALP ([…], time 7 day) was 1666.2 IU/L. For the same compound, the ALT ([…], time 7 day) was 40 IU/L, the AST ([…], time 7 day) was 68 IU/L and the BUN ([…], time 7 day) was 17.8 mg/dL. For the same compound, the CRE ([…], time 7 day) was 0.2 mg/dL, the Ca ([…], time 7 day) was 10.6 mg/dL and the Cl ([…], time 7 day) was 107.4 meq/L. It also gave a DBIL ([…], time 7 day) of 0 mg/dL, a GLC ([…], time 7 day) of 182.4 mg/dL and an IP ([…], time 7 day) of 7.3 mg/dL. For the same compound, the K ([…], time 7 day) was 4.4 meq/L, the LDH ([…], time 7 day) was 164.4 IU/L and the Na ([…], time 7 day) was 144.4 meq/L. The PL ([…], time 7 day) was 146.6 mg/dL, the RALB ([…], time 7 day) was 3 g/dL and the TBIL ([…], time 7 day) was 0.01 mg/dL. For the same compound, the TC ([…], time 7 day) was 72.6 mg/dL, the TG ([…], time 7 day) was 125.8 mg/dL and the TP ([…], time 7 day) was 5.6 g/dL. The gamma-GTP ([…], time 7 day) was 1.8 IU/L, the A/G ([…], time 14 day) was 1.1 and the ALP ([…], time 14 day) was 1834 IU/L. It also gave an ALT ([…], time 14 day) of 39.6 IU/L, an AST ([…], time 14 day) of 68 IU/L and a BUN ([…], time 14 day) of 19 mg/dL. For the same compound, the CRE ([…], time 14 day) was 0.2 mg/dL, the Ca ([…], time 14 day) was 10.1 mg/dL and the Cl ([…], time 14 day) was 107.4 meq/L. It also gave a DBIL ([…], time 14 day) of 0.002 mg/dL, a GLC ([…], time 14 day) of 194.8 mg/dL and an IP ([…], time 14 day) of 6.7 mg/dL. It also gave a K ([…], time 14 day) of 4.1 meq/L, an LDH ([…], time 14 day) of 160.2 IU/L and a Na ([…], time 14 day) of 142.4 meq/L. It also gave a PL ([…], time 14 day) of 138 mg/dL, an RALB ([…], time 14 day) of 3 g/dL and a TBIL ([…], time 14 day) of 0.008 mg/dL. It also gave a TC ([…], time 14 day) of 63.8 mg/dL, a TG ([…], time 14 day) of 128 mg/dL and a TP ([…], time 14 day) of 5.5 g/dL. The gamma-GTP ([…], time 14 day) was 1.2 IU/L, the A/G ([…], time 28 day) was 1.2 and the ALP ([…], time 28 day) was 1175.4 IU/L. For the same compound, the ALT ([…], time 28 day) was 42.6 IU/L, the AST ([…], time 28 day) was 66.4 IU/L and the BUN ([…], time 28 day) was 18.6 mg/dL. For the same compound, the CRE ([…], time 28 day) was 0.2 mg/dL, the Ca ([…], time 28 day) was 10.2 mg/dL and the Cl ([…], time 28 day) was 107.8 meq/L. The DBIL ([…], time 28 day) was 0.004 mg/dL, the GLC ([…], time 28 day) was 183.6 mg/dL and the IP ([…], time 28 day) was 6 mg/dL. The K ([…], time 28 day) was 4.1 meq/L, the LDH ([…], time 28 day) was 156 IU/L and the Na ([…], time 28 day) was 143.2 meq/L. It also gave a PL ([…], time 28 day) of 131.8 mg/dL, an RALB ([…], time 28 day) of 3.1 g/dL and a TBIL ([…], time 28 day) of 0.012 mg/dL. The TC ([…], time 28 day) was 67 mg/dL, the TG ([…], time 28 day) was 103 mg/dL and the TP ([…], time 28 day) was 5.7 g/dL. For the same compound, the gamma-GTP ([…], time 28 day) was 1.8 IU/L.
